Patent publication US11434246B2, “EP4 antagonists” (Eisai R&D Management Co., Ltd., priority 2015, dated 2022)
pIC50: −log10 of the molar value.

Target: EP4 (Homo sapiens, UniProt P35408)
Assay: EP4 Antagonism by CRE-PLAP Reporter Assay (SE302 cells, PGE2-stimulated)
Format: cell-based
Parameters: HEK293 cells express endogenous EP4; endogenous in cells; host or cells: SE302 (HEK293 clone with CRE-PLAP reporter)
Conditions: SE302 (HEK293) cells, 3 ng/mL PGE2, overnight; single or multiple assay average values
Excerpt: PGE2 and [^3H]-labelled PGE2 were purchased from Cayman Chemical (Ann Arbor, Mich.) and Perkin Elmer (Waltham, Mass.), respectively. Mouse breast 4T1 cells (CRL-2539) were obtained from American Tissue Culture Collection. SE302 cell line is a clone of the HEK293 cells containing cAMP response element (CRE) promoter that when activated drives secretion of placental-like alkaline phosphatase (PLAP). HEK293 cells express endogenous EP4 and show induction of PLAP in response to PGE2 and EP4 agonists, but not EP1, 2 or 3 agonists (Chen Q, Muramoto K, Masaaki N, Ding Y, Yang H, Mackey M, Li W, Inoue Y, Ackermann K, Shrota H, Matsumoto I, Spyvee M, Schiller S, Sumida T, Gusovsky F, and Lamphier M. A novel antagonist of the prostaglandin E2 EP4 receptor inhibits Th1 differentiation and Th17 expansion and is orally active in arthritis models. British J Pharmacol, 2010, 160: 292-310). BalB/C female mice at 7-8 week age were purchased from Jackson Laboratory (Bar Harbor, Me.). Mice were maintained under specific pathogen-free conditions.
EP4 Antagonism by CRE-PLAP Reporter Assay: SE302 cells were maintained in DMEM/F12 (50:50) (MediaTech) supplemented with 10% FBS (Tissue Culture Biologicals) plus penicillin/streptomycin. When used for assays, cells were plated in a 96-well plate at 2×10^4 cells/100 μL/well in serum-free assay medium (DMEM/F12 supplemented with 0.1% BSA plus penicillin/streptomycin) and incubated for 4-6 h. Cells were then stimulated with 3 ng/mL of PGE2 in the presence or absence of various concentrations of test compound overnight, and PLAP activity was measured by mixing 15 μL of culture supernatants with 75 μL of Lumi-phos (Lumigen, Inc.) and 60 μL of assay buffer containing 8 mmol/L MgSO4 in 0.1 mol/L carbonate-bicarbonate buffer pH11 in a new 96-well black plate and incubated for 2 h at room temperature. The intensity of luminescence, which reflected the PLAP activity in the supernatant, was quantified with an Envision 2101 Multilabel Reader. Values obtained from DMSO treated samples in the presence of PGE2 were defined as 100% of control, whereas values obtained from DMSO treated samples in the absence of PGE2 were defined as 0% of control. % of control for compound treated samples was calculated as follows: (actual reading−0% of control)/(100% of control−0% of control)×100. IC50 value for each individual experiment was calculated using GraphPad Prism 6.02 (Lake Forest, Calif.) with % of control values.
Compounds of the present invention were assayed according to the methods as described above, and IC50 values, which may be single assay values or multiple assay average values, are summarized in Table 1. Compounds marked “ABS” show absolute stereochemistry.

Chain of EP4 (P35408 whole entry): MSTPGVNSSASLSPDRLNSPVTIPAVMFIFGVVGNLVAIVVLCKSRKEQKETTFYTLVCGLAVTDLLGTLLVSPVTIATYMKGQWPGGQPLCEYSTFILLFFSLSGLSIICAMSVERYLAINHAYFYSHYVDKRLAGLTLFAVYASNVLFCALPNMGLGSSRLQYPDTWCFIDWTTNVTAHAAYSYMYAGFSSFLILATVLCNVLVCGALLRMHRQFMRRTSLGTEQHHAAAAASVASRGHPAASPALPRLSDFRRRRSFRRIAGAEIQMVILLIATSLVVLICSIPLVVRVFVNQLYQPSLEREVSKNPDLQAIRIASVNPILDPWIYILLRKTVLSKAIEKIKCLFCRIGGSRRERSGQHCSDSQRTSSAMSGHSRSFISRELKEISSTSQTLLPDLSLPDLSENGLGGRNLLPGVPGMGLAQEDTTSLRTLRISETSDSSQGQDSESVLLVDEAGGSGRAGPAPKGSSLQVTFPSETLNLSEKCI

| pIC50 | Compound |
| --- | --- |
| 8.78 | C[C@H](NC(=O)c1c(C(F)(F)F)nn2c1N(Cc1cccc(F)c1)CC2)c1ccc(C(=O)O)cc1 [Compound 15, (S)-4-(1-(1-(3-fluorobenzyl)-6-(trifluoromethyl)-2,3-dihydro-1H-imidazo[1,2-b]pyrazole-7-carboxamido)ethyl)benzoic Acid] |
| 9.15 | C[C@H](NC(=O)c1c(C(F)(F)F)nn2c1N(Cc1cccc(I)c1)CC2)c1ccc(C(=O)O)cc1 [Compound 69, (S)-4-(1-(1-(3-iodobenzyl)-6-(trifluoromethyl)-2,3-dihydro-1H-imidazo[1,2-b]pyrazole-7-carboxamido)ethyl)benzoic acid] |
| 9.09 | C[C@H](NC(=O)c1c(C(F)(F)F)nn2c1N(Cc1cccc(CO)c1)CC2)c1ccc(C(=O)O)cc1 [Compound 64, (S)-4-(1-(1-(3-(hydroxymethyl)benzyl)-6-(trifluoromethyl)-2,3-dihydro-1H-imidazo[1,2-b]pyrazole-7-carboxamido)ethyl)benzoic acid] |
| 9.00 | C[C@H](NC(=O)c1c(C(F)(F)F)nn2c1N(Cc1ccc(Cl)cc1)CC2)c1ccc(C(=O)O)cc1 [Compound 31, (S)-4-(1-(1-(4-chlorobenzyl)-6-(trifluoromethyl)-2,3-dihydro-1H-imidazo[1,2-b]pyrazole-7-carboxamido)ethyl)benzoic Acid] |
| 9.24 | C[C@H](NC(=O)c1c(C(F)(F)F)nn2c1N(Cc1ccc(F)cc1)CC2)c1ccc(C(=O)O)cc1 [Compound 14, (S)-4-(1-(1-(4-fluorobenzyl)-6-(trifluoromethyl)-2,3-dihydro-1H-imidazo[1,2-b]pyrazole-7-carboxamido)ethyl)benzoic Acid] |
| 8.38 | C[C@H](NC(=O)c1c(C(F)(F)F)nn2c1N(Cc1ccccc1Cl)CC2)c1ccc(C(=O)O)cc1 [Compound 43, (S)-4-(1-(1-(2-chlorobenzyl)-6-(trifluoromethyl)-2,3-dihydro-1H-imidazo[1,2-b]pyrazole-7-carboxamido)ethyl)benzoic Acid] |
| 8.17 | C[C@H](NC(=O)c1c(C(F)(F)F)nn2c1N(Cc1cccc(C(F)(F)F)c1)CCC2)c1ccc(C(=O)O)cc1 [Compound 44, (S)-4-(1-(2-(trifluoromethyl)-4-(3-(trifluoromethyl)benzyl)-4,5,6,7-tetrahydropyrazolo[1,5-a]pyrimidine-3-carboxamido)ethyl)benzoic Acid] |
| 7.87 | C[C@H](NC(=O)c1c(C(F)(F)F)nn2c1N(Cc1cccc(Cl)c1)CCC2)c1ccc(C(=O)O)cc1 [Compound 42, (S)-4-(1-(4-(3-chlorobenzyl)-2-(trifluoromethyl)-4,5,6,7-tetrahydropyrazolo[1,5-a]pyrimidine-3-carboxamido)ethyl)benzoic Acid] |
| 7.00 | C[C@H](NC(=O)c1c(C(F)(F)F)nn2c1N(Cc1ccccc1Cl)CCC2)c1ccc(C(=O)O)cc1 [Compound 61, (S)-4-(1-(4-(2-chlorobenzyl)-2-(trifluoromethyl)-4,5,6,7-tetrahydropyrazolo[1,5-a]pyrimidine-3-carboxamido)ethyl)benzoic Acid] |
| 8.33 | C[C@H](NC(=O)c1c(C(F)(F)F)nn2c1N(Cc1cccc(OCCF)c1)CC2)c1ccc(C(=O)O)cc1 [Compound 75, (S)-4-(1-(1-(3-(2-fluoroethoxy)benzyl)-6-(trifluoromethyl)-2,3-dihydro-1H-imidazo[1,2-b]pyrazole-7-carboxamido)ethyl)benzoic Acid] |
| 8.12 | C[C@H](NC(=O)c1c(-c2ccccc2)nn2c1N(Cc1cccc(C(F)(F)F)c1)CC2)c1ccc(C(=O)O)cc1 [Compound 60, (S)-4-(1-(6-phenyl-1-(3-(trifluoromethyl)benzyl)-2,3-dihydro-1H-imidazo[1,2-b]pyrazole-7-carboxamido)ethyl)benzoic Acid] |

More lines, now with the values behind:

| Compound | pIC50 |
| --- | --- |
| Cc1nn2c(c1C(=O)NC1(c3ccc(C(=O)O)cc3)CC1)N(Cc1ccc(C(F)(F)F)cc1)CC2 [Compound 28, 4-(1-(6-methyl-1-(4-(trifluoromethyl)benzyl)-2,3-dihydro-1H-imidazo[1,2-b]pyrazole-7-carboxamido)cyclopropyl)benzoic Acid] | 8.06 |
| C[C@H](NC(=O)c1c(C(F)(F)F)nn2c1N(CC1CCC(CF)CC1)CC2)c1ccc(C(=O)O)cc1 (stereo partly drawn) [Compound 78, (S)-4-(1-(1-((4-(fluoromethyl)cyclohexyl)methyl)-6-(trifluoromethyl)-2,3-dihydro-1H-imidazo[1,2-b]pyrazole-7-carboxamido)ethyl)benzoic acid] | 7.20 |
| C[C@H](NC(=O)c1c(C(F)(F)F)nn2c1N(Cc1cccc(C(F)(F)F)c1)CC2)c1ccc(C(=O)NS(=O)(=O)c2ccc(F)c(F)c2)cc1 [Compound 53, (S)—N-(1-(4-(((3,4-difluorophenyl)sulfonyl)carbamoyl)phenyl)ethyl)-6-(trifluoromethyl)-1-(3-(trifluoromethyl)benzyl)-2,3-dihydro-1H-imidazo[1,2-b]pyrazole-7-carboxamide] | 8.41 |
| C[C@H](NC(=O)c1c(C(F)(F)F)nn2c1N(Cc1ccc(CCCF)c(C(F)(F)F)c1)CC2)c1ccc(C(=O)O)cc1 [Compound 98, (S)-4-(1-(1-(4-(3-Fluoropropyl)-3-(trifluoromethyl)benzyl)-6-(trifluoromethyl)-2,3-dihydro-1H-imidazo[1,2-b]pyrazole-7-carboxamido)ethyl)benzoic Acid] | 7.75 |
| Cc1nn2c(c1C(=O)N[C@@H](C)c1ccc(C(=O)O)cc1)N([C@H](C)c1ccc(C(F)(F)F)cc1)CC2 [Compound 35, 4-((S)-1-(6-methyl-1-((R)-1-(4-(trifluoromethyl)phenyl)ethyl)-2,3-dihydro-1H-imidazo[1,2-b]pyrazole-7-carboxamido)ethyl)benzoic Acid] | 7.95 |
| C[C@H](NC(=O)c1c(C(F)(F)F)nn2c1N(Cc1cccc(C(F)(F)F)c1)CC2)c1ccc(C(=O)O)cc1F [Compound 23, (S)-3-fluoro-4-(1-(6-(trifluoromethyl)-1-(3-(trifluoromethyl)benzyl)-2,3-dihydro-1H-imidazo[1,2-b]pyrazole-7-carboxamido)ethyl)benzoic Acid] | 9.39 |
| C[C@H](NC(=O)c1c(C(F)(F)F)nn2c1N(Cc1cc(C(F)(F)F)cc(C(F)(F)F)c1)CC2)c1ccc(C(=O)O)cc1 [Compound 5, (S)-4-(1-(1-(3,5-bis(trifluoromethyl)benzyl)-6-(trifluoromethyl)-2,3-dihydro-1H-imidazo[1,2-b]pyrazole-7-carboxamido)ethyl)benzoic Acid] | 7.34 |
| C[C@H](NC(=O)c1c(C(F)(F)F)nn2c1N(Cc1ccc(I)c(C(F)(F)F)c1)CC2)c1ccc(C(=O)O)cc1 [Compound 68, (S)-4-(1-(1-(4-iodo-3-(trifluoromethyl)benzyl)-6-(trifluoromethyl)-2,3-dihydro-1H-imidazo[1,2-b]pyrazole-7-carboxamido)ethyl)benzoic acid] | 7.96 |
| C[C@H](NC(=O)c1c(C(F)(F)F)nn2c1N(Cc1cccc(C(F)(F)F)c1)CC2)c1ccc(C(=O)NS(=O)(=O)c2ccc(N)cc2)cc1 [Compound 72, (S)—N-(1-(4-(((4-aminophenyl)sulfonyl)carbamoyl)phenyl)ethyl)-6-(trifluoromethyl)-1-(3-(trifluoromethyl)benzyl)-2,3-dihydro-1H-imidazo[1,2-b]pyrazole-7-carboxamide] | 7.29 |
| C[C@H](NC(=O)c1c(C(F)(F)F)nn2c1N(Cc1cccc(CN3CCn4nc(C(F)(F)F)c(C(=O)N[C@@H](C)c5ccc(C(=O)O)cc5)c43)c1)CC2)c1ccc(C(=O)O)cc1 [Compound 66, 4,4′-((1S,1′S)-((1,1′-(1,3-phenylenebis(methylene))bis(6-(trifluoromethyl)-2,3-dihydro-1H-imidazo[1,2-b]pyrazole-1,7-diyl-7-carbonyl))bis(azanediyl))bis(ethane-1,1-diyl))dibenzoic Acid] | 7.45 |
| C[C@H](NC(=O)c1c(C(F)(F)F)nn2c1N(Cc1cccc(C(F)(F)F)c1)C[C@H]2CO)c1ccc(C(=O)O)cc1 [Compound 83, 4-((S)-1-((S)-3-(hydroxymethyl)-6-(trifluoromethyl)-1-(3-(trifluoromethyl)benzyl)-2,3-dihydro-1H-imidazo[1,2-b]pyrazole-7-carboxamido)ethyl)benzoic Acid] | 9.19 |
